From patent publication US20170281578A1, “METHODS FOR TREATING METABOLIC DISTURBANCES” (THE BOARD OF REGENTS OF THE UNIVERSITY OF TEXAS SYSTEM, priority 2016, published 2017)

How the values were obtained:
[1] = Crossover trial in pre- or Stage I hypertension: serum and 24-hour urinary K and Mg; assay type: in vivo, human; conditions: 4-week phases, 20 meq K bid; vs placebo phase, p<0.01
Text: In the inventors' published study (Vongpatanasin, 2016), 30 patients with pre- (6 subjects) or Stage I (24 subjects) hypertension underwent a crossover trial, whereby they took KMgCit powder (20 meq K, 10 meq Mg and 37 meq citrate twice daily), KCit powder (20 meq K and 20 meq citrate twice daily), KCl powder (20 meq K and 20 meq chloride twice daily), or placebo (microcrystalline cellulose) for four weeks each. Among hypertensive subjects, 17 of 24 received antihypertensive treatment before study participation. All treated subjects received single-drug regimen before participation in the study (6 were on β blockers, 11 on angiotensin receptor blockers, or angiotensin-converting enzyme inhibitors, or calcium channel blockers), which was continued at the same dose throughout the study. None of the subjects had low serum Mg<1.8 mg/dl or serum K<3.5 meq/l or were on diuretic therapy.
Serum K and 24-hour urinary K excretion were increased during KCl, KCit, and KMgCit phases compared with placebo phase (p <0.01 vs placebo). Serum Mg was increased during KMgCit phase compared with placebo and KCl phases (both p<0.01); 24-hour urinary Mg excretion was increased during KMgCit phase compared with placebo and KCit (both p<0.01). 24-hour urinary Mg excretion was higher during KMgCit compared with KCl (p=0.017).

serum FGF23 = assay: Crossover randomized trial in pre- or Stage I hypertension: serum FGF23; assay type: in vivo, human; conditions: 30 patients; after 4 weeks of treatment; 20 meq K twice daily; p=0.05
Protocol: FIG. 4 illustrates effect of KMgCit on serum FGF23.
In the inventors' study, 30 patients with pre- or Stage I hypertension participated in a crossover randomized trial, whereby they took KMgCit powder (20 meq K, 10 meq Mg and 37 meq citrate twice daily) or KCl powder (20 meq K and 20 meq chloride twice daily) for four weeks each. After 4 weeks of treatment, serum samples were analyzed fro FGF23.

[2] = test system: RAA-SNS, serum aldosterone, fasting glucose, HOMA-IR; conditions: cited from earlier work
serum triglyceride = assay: Serum triglyceride in healthy adults on HCTZ with KMgCit or KCl; assay type: in vivo, human; conditions: from 1 month to 5 months of treatment; with HCTZ 50 mg/day; 40 meq K/day; p=0.09 between groups
Protocol: In the inventors' prior study (Odvina, & Pak, 2006), previously unpublished data on serum triglyceride were extracted. Eight healthy adult subjects took HCTZ 50 mg/day with KMgCit containing 40 meq K and 20 meq Mg/day for 6 months. Ten subjects received HCTZ 50 mg/day with KC1 40 meq K/day. Serum triglyceride declined by −32±41 mg/dL from 1 month to 5 months of treatment in the KMgCit group; It was underaltered from 1 month to 5 months of KCl treatment (0±31 mg/dL). The difference of the change in serum triglyceride between KMgCit and KCl groups was marginally significant (p=0.09). No baseline or 6 month data were available.

SMILES	24-hour urinary K excretion [1]	Serum K [1]	Serum FGF23 (serum FGF23)	CTD-induced activation of RAA-SNS ([2]; KCl supplementation)	Serum aldosterone ([2]; TZ-treated patients with hypertension, KCl supplementation)	CTD-induced fasting hyperglycemia and increased HOMA-IR ([2]; correction of hypokalemia by KCl)	Change in serum triglyceride (serum triglyceride)
O=C([O-])CC(O)(CC(=O)[O-])C(=O)[O-].[K+].[K+].[K+] [KCit powder, potassium citrate]	increased	increased					
[Cl-].[K+] [KCl powder, potassium chloride]	increased	increased	53.1±22.2 Rel U/ml	unaffected	did not reduce	did not reverse	0 ± 31 mg/dL
